Experimental data taken from US10392369B2, “N-[(pyrimidinyloxy)propanyl]benzamides” (Boehringer Ingelheim International GmbH, priority 2016, dated 2019).
Like-named read-outs stand apart in the source and are kept apart here.

Legend:
OX2R = target: T1, OX2R (Homo sapiens, UniProt O43614); details: cited from earlier work
T1 sequence (O43614 1-444): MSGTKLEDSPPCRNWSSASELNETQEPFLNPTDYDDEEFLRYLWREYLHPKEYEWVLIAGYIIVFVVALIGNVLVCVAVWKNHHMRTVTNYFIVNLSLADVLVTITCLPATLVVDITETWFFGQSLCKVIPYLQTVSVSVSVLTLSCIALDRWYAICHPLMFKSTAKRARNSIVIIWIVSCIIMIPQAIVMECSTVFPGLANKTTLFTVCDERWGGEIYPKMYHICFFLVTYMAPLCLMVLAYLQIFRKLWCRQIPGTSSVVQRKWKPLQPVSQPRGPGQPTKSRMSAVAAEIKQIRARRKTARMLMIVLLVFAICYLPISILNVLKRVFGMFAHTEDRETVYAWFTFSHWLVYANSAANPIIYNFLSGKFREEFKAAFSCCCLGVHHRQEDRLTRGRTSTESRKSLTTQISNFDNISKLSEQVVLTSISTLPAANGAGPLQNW

human Orexin 1 receptor = target: T2, human Orexin 1 receptor (Homo sapiens, UniProt O43613); experiment: Assay A: OX1R IP1 (in vitro OX1R potency); assay type: cell-based; details: for Kb: Table 3, read-out: Assay A OX1R Kb (Orexin A concentration); for OX1R selectivity compared to Example 14 in WO2016/034882 / OX1R potency compared to Example 91 in WO2016/034882 / OX1R selectivity over OX2R (selectivity ratio OX2R Kb/OX1R Kb) compared to Example 91 in WO2016/034882: in words; for OX1R selectivity compared to Example 14 in WO2016/034882: versus Example 14 in WO2016/034882; for OX1R potency compared to Example 91 in WO2016/034882 / OX1R selectivity over OX2R (selectivity ratio OX2R Kb/OX1R Kb) compared to Example 91 in WO2016/034882: versus Example 91 in WO2016/034882
T2 construct: stably expressing the full-length human Orexin 1 receptor; expressed in transfected cells; host or cells: CHO-K1 (CHO-K1/hOx1), co-expressing the aequorin photoprotein
T2 sequence (O43613 1-425): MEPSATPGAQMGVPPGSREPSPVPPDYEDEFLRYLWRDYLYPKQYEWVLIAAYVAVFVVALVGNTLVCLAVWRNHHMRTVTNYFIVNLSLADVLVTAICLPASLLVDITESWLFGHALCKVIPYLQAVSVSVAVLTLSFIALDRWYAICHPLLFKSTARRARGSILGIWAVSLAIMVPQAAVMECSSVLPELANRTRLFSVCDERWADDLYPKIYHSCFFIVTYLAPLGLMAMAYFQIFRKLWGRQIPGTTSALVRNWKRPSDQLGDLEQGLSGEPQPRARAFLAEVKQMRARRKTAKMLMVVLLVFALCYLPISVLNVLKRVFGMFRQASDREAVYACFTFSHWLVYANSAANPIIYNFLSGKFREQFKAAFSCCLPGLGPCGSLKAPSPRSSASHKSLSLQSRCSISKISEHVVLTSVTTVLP
Source text: Activation of the orexin receptors expressed in cell lines results in an increase in intracellular IP3 concentration. IP1, a downstream metabolite of IP3, accumulates in cells following receptor activation and is stable in the presence of LiCl. Using Homogeneous Time-Resolved Fluorescence technology with Lumi4-Tb cryptate (commercially available from Cisbio Bioassay.) and a suitable fluorescence plate reader. […] This technique is used to characterize pharmacological modification of the orexin receptors.
A. In Vitro Testing of OX1R Potency: OX1R IP1
IP1 measurements are performed in CHO-K1 cells stably expressing the full-length human Orexin 1 receptor and the aequorin photoprotein. Cells are cultivated in Ham's nutrient mixture F12 medium with 10% fetal calf serum, in a 37° C., 95% humidity and 5% CO2 incubator. The CHO-K1/hOx1 cell mass is expanded to larger cell numbers. The cells are obtained as frozen cells in cryo-vials and stored until use at −150° C. […] In preparation for the assay, 24 hours before the assay, the cells are thawed at 37° C. and immediately diluted with cell culture medium. After centrifugation, the cell pellet is re-suspended in medium and then distributed into the assay plates with a density of 10000 cells/25 μL per well. The plates are incubated for one hour at room temperature to reduce edge effects before they are incubated for 24 hours at 37° C./5% CO2. Compounds are prepared by an 8-point serial dilution in DMSO and a final dilution step into assay buffer (HBSS with 20 mM HEPES, 0.1% BSA and 50 mM LiCl, pH 7.4) to ensure a final DMSO concentration of 1% in the assay.
(§1) On the day of the assay, cells in the plate are washed twice with 60 μL assay buffer (20 μL buffer remained in the wells after washing), followed by adding 5 μL per well of compounds diluted in assay buffer. After 15 minutes of incubation at room temperature 5 μL per well of Orexin A peptide (final concentration: 0.5 nM and/or 50 nM) dissolved in assay buffer is added to the assay plate. The assay plate is incubated for 60 minutes at 37° C. Then 5 μl per well of Anti-IP1-Cryptate Tb solution and 5 μl per well of IP1-d2 dilution are added and the plate is incubated for a further 60 minutes light protected at room temperature.
8-point four parametric non-linear curve fitting and determination of IC50 values and Hill slopes is performed using a regular analysis software e.g. AssayExplorer (Accelrys). In order to establish an agonist concentration independent parameter, Kb values are calculated using the following equation: IC50/((2+(A/EC50)^n)^1/n−1) (with A=concentration agonist, EC50=EC50 agonist, n=Hill slope agonist).

human orexin 2 receptor = target: T3, human orexin 2 receptor (Homo sapiens, UniProt O43614); experiment: Assay B: OX2R IP1 (in vitro OX2R potency); assay type: cell-based; details: Table 3; 0.5 nM Orexin A
T3 construct: stably expressing the full-length human orexin 2 receptor; expressed in transfected cells; host or cells: CHO-K1 (CHO-K1/hOx2), co-expressing the aequorin photoprotein
T3 sequence (O43614 1-444): T1 sequence (O43614 1-444)
Source text: Activation of the orexin receptors expressed in cell lines results in an increase in intracellular IP3 concentration. IP1, a downstream metabolite of IP3, accumulates in cells following receptor activation and is stable in the presence of LiCl. Using Homogeneous Time-Resolved Fluorescence technology with Lumi4-Tb cryptate (commercially available from Cisbio Bioassay.) and a suitable fluorescence plate reader. […] Chem. Genomics 2009, 3, 22-32. This technique is used to characterize pharmacological modification of the orexin receptors.
B. In Vitro Testing of OX2R Potency: OX2R IP1
IP1 measurements are performed in CHO-K1 cells stably expressing the full-length human orexin 2 receptor and the aequorin photoprotein. Cells are cultivated in Ham's nutrient mixture F12 medium with 10% fetal calf serum, in a 37° C., 95% humidity and 5% CO2 incubator. The CHO-K1/hOx2 cell mass is expanded to larger cell numbers. The cells are obtained as frozen cells in cryo-vials and stored until use at −150° C. The viability of the cells after thawing is >90%. In preparation for the assay, 24 hours before the assay, the cells are thawed at 37° C. and immediately diluted with cell culture medium. After centrifugation, the cell pellet is resuspended in medium and then distributed into the assay plates with a density of 5000 cells/25 μL per well. The plates are incubated for one hour at room temperature to reduce edge effects before they are incubated for 24 hours at 37° C./5% CO2. Compounds are prepared by a 8-point serial dilution in DMSO and a final dilution step into assay buffer (HBSS with 20 mM HEPES, 0.1% BSA and 50 mM LiCl, pH 7.4) to ensure a final DMSO concentration of 1% in the assay.
as §1, with “concentration: 0.5 nM) dissolved” for “concentration: 0.5 nM and/or 50 nM) dissolved”, “are added to all well of the plate and the” for “are added and the”, “room temperature. The emission at 615 nm and 665 nm (Excitation wavelength: 320 nm) are measured using an EnVision reader (PerkinElmer). The ratio between the emission at 665 nm and 615 is calculated by the reader.” for “room temperature.”
8-point four parametric non-linear curve fitting and determination of […] values and Hill slopes is performed using a regular analysis software e.g. AssayExplorer (Accelrys). In order to establish an agonist concentration independent parameter, Kb values are calculated using the following equation: IC50/((2+(A/EC50)^n)^1/n−1) (with A=concentration agonist, EC50=EC50 agonist, n=Hill slope agonist) (see P. Leff, I. G. Dougall, Trends Pharmacol. Sci. 1993, 14(4), 110-112).

| Structure (SMILES) | OX2R pIC50 (OX2R; Table 3 of WO2016/034882) | IC50 (OX2R; corresponds to pIC50 of Table 3 of WO2016/034882) | Kb (human Orexin 1 receptor; 0.5 nM Orexin A) | Kb (human Orexin 1 receptor; 50 nM Orexin A) | OX1R selectivity compared to Example 14 in WO2016/034882 (human Orexin 1 receptor) | Kb (human orexin 2 receptor) | OX2R Kb/OX1R Kb (human Orexin 1 receptor) | OX1R potency compared to Example 91 in WO2016/034882 (human Orexin 1 receptor) | OX1R selectivity over OX2R (selectivity ratio OX2R Kb/OX1R Kb) compared to Example 91 in WO2016/034882 (human Orexin 1 receptor) |
| --- | --- | --- | --- | --- | --- | --- | --- | --- | --- |
| CC[C@@H](CNc1ncc(C(F)(F)F)cn1)N(C)C(=O)c1c(F)cccc1-n1nccn1 [Ex 91 in WO2016/ 034882] | < 5.1 | > 7950 nM | – | – | – | – | – | – | – |
| CCN(C(=O)c1ccccc1-c1ncccn1)[C@@H](C)COc1ncc(C(F)(F)F)cn1 [Example 28] | – | – | 0.62 nM | 0.74 nM | increase in OX1R selectivity | 176 nM | – | – | – |
| CCN(C(=O)c1c(-n2nccn2)ccc(C)c1F)[C@@H](C)COc1ncc(C(F)(F)F)cn1 [Example 34] | – | – | 1.8 nM | – | – | 431 nM | 239 | increase in OX1R potency | increase in OX1R selectivity |
| CCN(C(=O)c1ccccc1-c1noc(C)n1)[C@@H](C)COc1ncc(C(F)(F)F)cn1 [Example 23] | – | – | 2.1 nM | – | – | 435 nM | 207 | – | increase in OX1R selectivity |
| CCN(C(=O)c1ccccc1-c1ncco1)[C@@H](C)COc1ncc(C(F)(F)F)cn1 [Example 36] | – | – | 3.2 nM | – | – | 511 nM | 160 | – | increase in OX1R selectivity |
| CCN(C(=O)c1cc(OC)ccc1-n1nccn1)[C@@H](C)COc1ncc(C(F)(F)F)cn1 [Example 14] | – | – | 0.97 nM | 1.21 nM | – | 253 nM | – | increase | increase |
| CCN(C(=O)c1cccc(F)c1-c1ncccn1)[C@@H](C)COc1ncc(C(F)(F)F)cn1 [Example 32] | – | – | 0.61 nM | 0.46 nM | increase in OX1R selectivity | 188 nM | – | – | – |
| CCN(C(=O)c1ccc(OC)cc1-n1nccn1)[C@@H](C)COc1ncc(C(F)(F)F)cn1 [Example 30] | – | – | 1.8 nM | – | – | 579 nM | 322 | increase | increase |
| CCN(C(=O)c1cccc(F)c1-n1nccn1)[C@@H](C)COc1ncc(C(F)(F)F)cn1 [Example 1] | – | – | 1.7 nM | 2.5 nM | – | 425 nM | – | – | more selective |
| CCN(C(=O)c1ccc(F)cc1-n1nccn1)[C@@H](C)COc1ncc(C(F)(F)F)cn1 [Example 7] | – | – | 4.5 nM | – | – | 902 nM | 201 | – | more selective |
| CCN(C(=O)c1cccc(C)c1-n1nccn1)[C@@H](C)COc1ncc(C(F)(F)F)cn1 [Example 11] | – | – | 1.3 nM | 1.4 nM | – | 160 nM | – | increase | increase |
| CCN(C(=O)c1cccc(F)c1-n1nccn1)[C@@H](C)COc1ncc(Br)cn1 [Example 29] | – | – | 2 nM | – | – | 350 nM | 178 | – | increase in OX1R selectivity |
